Results reported in US11883379B1, “9-flouro-dibenzo[B,G]indeno[1′, 2′:3,4]fluoreno-[1,2-D]oxonine-5, 11, 16,21-tetraone as an antimicrobial agent” (KING FAISAL UNIVERSITY, priority 2023, dated 2024).

With `O=C1Oc2ccc(F)cc2-c2c(c3c4ccccc4c(=O)c3c3c2c(=O)c2ccccc23)C(=O)c2ccccc21` [9-fluoro-dibenzo[b,g]indeno[1′,2′:3,4]fluoreno-[1,2-d]oxonine-5,11,16,21-tetraone] the melting point was 288 to 289 °C.
